Results taken from the supplement of paper PMC10307832.

Key:
Test in all cases: relative viability (nuclei count vs DMSO), 5 days (fraction); higher = more cells survive
[1] = compound: CC1CC(=O)N(C2=CN=C(N=C2N1C3CCCC3)NC4=C(C=C(C=C4)C(=O)NC5CCN(CC5)C)OC)C [NPK76-II-72-1] + CS(=O)(=O)N1CCN(Cc2cc3nc(-c4cccc5[nH]ncc45)nc(N4CCOCC4)c3s2)CC1 [Pictilisib] (partner 1 µM)
Outline: (§1)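 After 5 days of treatment, lung cancer cells in 1536-well plates were fixed and stained in a single step (final 0.05% Triton X-100, 1% formaldehyde, 1 ug/ml Hoechst) and their nuclei counted on 4× images. Treatment had been applied by pin tool the day after seeding as one drug alone or as a fixed anchor-drug dose with five library-drug doses (not always all listed) in √10 steps. Relative viability is the nuclei count of treated wells divided by that of vehicle wells, and values are medians of duplicate plates.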

[2] = compound: CC1CC(=O)N(C2=CN=C(N=C2N1C3CCCC3)NC4=C(C=C(C=C4)C(=O)NC5CCN(CC5)C)OC)C [NPK76-II-72-1] + CS(=O)(=O)CCNCc1ccc(-c2ccc3ncnc(Nc4ccc(OCc5cccc(F)c5)c(Cl)c4)c3c2)o1 [Lapatinib] (partner 2 µM)
Outline: as §1

[3] = compound: CC[C@@H]1C(=O)N(C)c2cnc(Nc3ccc(C(=O)NC4CCN(C)CC4)cc3OC)nc2N1C1CCCC1 [BI-2536] + Cc1nc(NC(=O)N2CCC[C@H]2C(N)=O)sc1-c1ccnc(C(C)(C)C(F)(F)F)c1 [Alpelisib] (partner 2 µM)
Outline: as §1

[4] = compound: CC[C@@H]1C(=O)N(C)c2cnc(Nc3ccc(C(=O)NC4CCN(C)CC4)cc3OC)nc2N1C1CCCC1 [BI-2536] + CS(=O)(=O)CCNCc1ccc(-c2ccc3ncnc(Nc4ccc(OCc5cccc(F)c5)c(Cl)c4)c3c2)o1 [Lapatinib] (partner 2 µM)
Outline: as §1

Cell Line | relative viability ([1]; first compound 0.01 µM) | relative viability ([1]; first compound 0.03162 µM) | relative viability ([1]; first compound 0.1 µM) | relative viability ([1]; first compound 0.3162 µM) | relative viability ([1]; first compound 1 µM) | relative viability ([2]; first compound 0.01 µM) | relative viability ([2]; first compound 0.03162 µM) | relative viability ([2]; first compound 0.1 µM) | relative viability ([2]; first compound 0.3162 µM) | relative viability ([2]; first compound 1 µM) | relative viability ([3]; first compound 0.01 µM) | relative viability ([3]; first compound 0.03162 µM) | relative viability ([3]; first compound 0.1 µM) | relative viability ([3]; first compound 0.3162 µM) | relative viability ([3]; first compound 1 µM) | relative viability ([4]; first compound 0.01 µM) | relative viability ([4]; first compound 0.03162 µM) | relative viability ([4]; first compound 0.1 µM) | relative viability ([4]; first compound 0.3162 µM) | relative viability ([4]; first compound 1 µM)
NCI-H1975 | 0.267 | 0.278 | 0.28 | 0.279 | 0.277 | 0.813 | 0.878 | 0.928 | 0.886 | 0.955 | 0.654 | 0.479 | 0.351 | 0.148 | 0.173 | 0.853 | 0.622 | 0.421 | 0.153 | 0.175
Calu-6 | 0.894 | 1.01 | 0.953 | 0.757 | 1.05 | 1.01 | 1.12 | 1.08 | 1.03 | 1.17 | 0.985 | 0.682 | 0.285 | 0.0989 | 0.126 | 0.957 | 0.666 | 0.703 | 0.122 | 0.132
NCI-H1993 | 0.811 | 0.804 | 0.779 | 0.88 | 0.759 | 0.729 | 0.92 | 0.906 | 0.822 | 0.788 | 0.68 | 0.618 | 0.556 | 0.532 | 0.541 | 0.81 | 0.828 | 0.533 | 0.566 | 0.555
RERF-LC-KJ | 0.491 | 0.543 | 0.546 | 0.482 | 0.492 | 0.818 | 0.869 | 0.841 | 0.818 | 0.979 | 0.697 | 0.724 | 0.675 | 0.195 | 0.208 | 0.862 | 0.842 | 0.775 | 0.179 | 0.206
NCI-H23 | 0.389 | 0.48 |  | 0.503 | 0.534 | 1.03 | 1.27 |  | 1.12 | 0.985 | 0.734 | 0.737 | 0.369 | 0.139 | 0.135 | 1.07 | 0.773 | 0.168 | 0.171 | 0.147
HCC-366 | 0.117 | 0.117 | 0.128 | 0.196 | 0.186 | 1.04 | 1.08 | 1.01 | 1.14 | 1.08 | 0.469 | 0.344 | 0.273 | 0.0093 | 0.0141 | 1.06 | 0.682 | 0.04 | 0.0163 | 0.0221
EMC-BAC-2 | 0.488 | 0.6 | 0.558 | 0.566 | 0.544 | 0.9 | 1.05 | 0.871 | 0.884 | 0.912 | 0.741 | 0.886 | 0.604 | 0.161 | 0.12 | 0.881 | 0.837 | 0.767 | 0.182 | 0.154
NCI-H2405 | 0.485 | 0.467 | 0.479 | 0.453 | 0.452 | 1.13 | 1.11 | 1.09 | 1.04 | 1.09 | 0.665 | 0.408 | 0.374 | 0.132 | 0.365 | 1.01 | 0.97 | 0.301 | 0.146 | 0.448
NCI-H358 | 0.352 | 0.364 | 0.334 | 0.3 | 0.332 | 0.444 | 0.443 | 0.549 | 0.453 | 0.477 | 0.995 | 0.537 | 0.154 | 0.158 | 0.159 | 0.454 | 0.312 | 0.174 | 0.161 | 0.182
NCI-H1944 | 0.351 | 0.352 | 0.318 | 0.338 | 0.35 | 0.81 | 0.808 | 0.904 | 0.825 | 0.71 | 0.895 | 0.892 | 0.679 | 0.192 | 0.164 | 0.848 | 0.832 | 0.754 | 0.678 | 0.161
EPLC-272H | 0.31 | 0.31 | 0.32 | 0.296 | 0.381 | 0.905 | 0.968 | 1.01 | 1.04 | 1.11 | 0.951 | 0.758 |  | 0.0883 | 0.114 | 0.894 | 0.828 |  | 0.483 | 0.11
EBC-1 | 0.404 | 0.432 | 0.536 | 0.347 | 0.456 | 0.193 | 0.182 | 0.218 | 0.229 | 0.218 | 0.852 | 0.799 | 0.564 | 0.175 | 0.179 | 0.21 | 0.194 | 0.203 | 0.174 | 0.155
NCI-H1915 | 0.988 | 1.08 | 0.91 | 0.846 | 0.902 | 0.931 | 1.07 | 1.01 | 0.881 | 0.897 | 1.05 | 0.977 | 0.812 | 0.129 | 0.0999 | 0.882 | 0.965 | 0.752 | 0.62 | 0.0794
NCI-H596 | 0.401 | 0.338 | 0.396 | 0.368 | 0.429 | 1 | 1.14 | 1.07 | 0.914 | 1.09 | 0.409 | 0.46 | 0.535 | 0.305 | 0.304 | 1.17 | 1.05 | 0.571 | 0.346 | 0.273
NCI-H322M | 0.45 | 0.573 | 0.513 | 0.576 | 0.513 | 0.515 | 0.636 | 0.597 | 0.612 | 0.557 | 0.912 | 0.881 | 0.811 | 0.618 | 0.269 | 0.545 | 0.483 | 0.59 | 0.673 | 0.251
NCI-H1299 | 0.79 | 0.738 | 0.839 | 0.702 | 0.777 | 0.949 | 1.01 | 0.957 | 0.961 | 0.954 | 0.952 | 1.15 | 1 | 0.278 | 0.339 | 0.933 | 0.933 | 0.69 | 0.291 | 0.235
NCI-H2228 | 0.359 | 0.497 | 0.503 | 0.402 | 0.483 | 0.88 | 1.04 | 1.13 | 1.15 | 0.874 | 0.899 | 0.373 | 0.193 | 0.211 | 0.202 | 1.38 | 0.629 | 0.207 | 0.165 | 0.166
IA-LM | 0.314 | 0.363 | 0.33 | 0.243 | 0.334 | 0.786 | 0.877 | 0.804 | 0.785 | 1.03 | 0.729 | 0.652 | 0.588 | 0.0728 | 0.0917 | 0.699 | 0.639 | 0.408 | 0.139 | 0.0816
NCI-H647 | 0.38 | 0.427 | 0.401 | 0.406 | 0.466 | 0.932 | 1.01 |  | 0.916 | 1.01 | 1.19 | 0.57 | 0.571 | 0.0897 | 0.091 | 1.11 | 0.737 | 0.104 | 0.0701 | 0.129
SK-MES-1 | 0.429 | 0.384 | 0.295 | 0.376 | 0.318 | 0.447 | 0.449 | 0.426 | 0.419 | 0.465 | 0.869 | 0.957 | 0.786 | 0.147 | 0.186 | 0.465 | 0.45 | 0.503 | 0.213 | 0.186
NCI-H2170 | 0.281 | 0.357 | 0.279 |  | 0.333 | 0.267 | 0.286 | 0.257 |  | 0.268 | 0.767 | 0.871 | 0.402 | 0.195 | 0.223 | 0.291 | 0.273 | 0.205 | 0.199 | 0.171
NCI-H2085 | 0.494 | 0.385 | 0.494 | 0.398 | 0.507 | 0.748 | 0.735 | 0.763 | 0.714 | 0.78 | 1.01 | 0.863 | 0.601 | 0.234 | 0.307 | 0.781 | 0.71 | 0.427 | 0.252 | 0.324
SW 1573 | 0.425 | 0.497 | 0.498 | 0.455 | 0.463 | 1.03 | 1.09 | 1.04 | 1 | 1.16 | 0.821 | 0.842 | 0.791 | 0.162 | 0.123 | 1.1 | 1.2 | 1.12 | 0.186 | 0.18
NCI-H727 | 0.396 | 0.428 | 0.385 | 0.418 | 0.319 | 0.97 | 1.04 | 0.81 | 0.979 | 0.884 | 0.616 | 0.636 | 0.453 | 0.245 | 0.238 | 0.972 | 0.853 | 0.512 | 0.268 | 0.242
LOU-NH91 | 0.501 | 0.507 | 0.46 | 0.502 | 0.597 | 0.746 | 0.759 | 0.732 | 0.777 | 0.822 | 0.764 | 0.602 | 0.657 | 0.359 | 0.317 | 0.794 | 0.756 | 0.663 | 0.284 | 0.291
NCI-H3122 | 0.625 | 0.618 | 0.601 | 0.652 | 0.63 | 1.02 | 1.03 | 0.966 | 1.1 | 1.04 | 0.877 | 0.662 | 0.354 | 0.198 | 0.203 | 0.943 | 1.07 | 0.296 | 0.258 | 0.228
NCI-H460 | 0.238 | 0.297 | 0.367 | 0.34 | 0.365 | 0.887 | 0.948 | 1.21 | 1.02 | 0.966 | 0.523 | 0.481 | 0.0303 | 0.0093 | 0.0065 | 1.04 | 0.257 | 0.206 | 0.0105 | 0.011
